The values that follow come from patent US5473057A, “Eleutherobin and analogs thereof” (The Regents of the University of California, priority 1994, dated 1995).

“Also recorded” adds a separate entry of the source. Like-named read-outs stand apart in the source and are kept apart here.

For series [1], the system named is human ovarian carcinoma cell line A2780. As to the kind of experiment: In vitro cytotoxicity in A2780 (XTT assay). In kind it is cell-based. The note with it: for IC50: Homo sapiens. The protocol: (§1) Eleutherobin and the above described analogs are useful as cytotoxic agents. The compounds are used in the same manner as other known cytotoxic agents. They may be used alone or in combination with suitable pharmaceutical carriers and other bioactive materials. They are used both in vitro and in vivo to kill a wide variety of cell types. […] For example, in vitro toxicity of eleutherobin was tested in the HCT116 human colon carcinoma cell line and a multidrug resistant subline, HCT116/VM46, which overexpresses P-glycoprotein and is over 100-fold resistant to taxol. […] The cytotoxicity of eleutherobin was also tested in a human ovarian carcinoma cell line A2780. Eleutherobin was also found to be cytotoxic with respect to the A2780 cell line.
(§2) ^1 Cytotoxicity was determined after 72 hour exposure by XTT assay.

The test system of series [2] is HCT116/VM46 human colon carcinoma subline, which overexpresses P-glycoprotein. As to the kind of experiment: In vitro cytotoxicity in multidrug resistant subline HCT116/VM46 (XTT assay). In kind it is cell-based. The following applies: for fold resistance relative to corresponding parent cell line: HCT116/VM46 relative to HCT116, 4320 min; for IC50: Homo sapiens, HCT-116/VM46, HCT116/VM46, 72 hour exposure, XTT assay. As for the experimental part:
as §1, §2
^2 Value in parenthesis is fold resistance relative to corresponding

The test system of series [3] is HCT116 human colon carcinoma cell line. As to the kind of experiment: In vitro cytotoxicity in HCT116 (XTT assay). Type of series: cell-based. The note with it: for IC50: Homo sapiens. The protocol: as §1, §2
The subject of another series is cancer cells. As to the kind of experiment: Cytotoxicity, general statement. Type of series: cell-based. The note with it: in words.
The conditions of series [4]: in words, background art; cited from earlier work.

As to `CC(=O)O[C@H]1C(=O)[C@@]2(C)[C@H]([C@H](OC(=O)c3ccccc3)[C@]3(O)C[C@H](OC(=O)[C@H](O)[C@@H](NC(=O)c4ccccc4)c4ccccc4)C(C)=C1C3(C)C)[C@]1(OC(C)=O)CO[C@@H]1C[C@@H]2O` [paclitaxel (taxol), paclitaxel], the IC50 in series [1] (A2780, 72 hour exposure, XTT assay, read-out: IC50) turned out to be 6.7 nM; in series [2], 5.37 nM; in series [3] (HCT-116, HCT116, 72 hour exposure, XTT assay, read-out: IC50), 4.6 nM. In addition, the entries for the “fold resistance relative to corresponding parent cell line” value in series [2] and in series [2] (listed as taxol) were 117 fold and “over 100 fold”, respectively.

For the compound `CO[C@]12C=C[C@](C)(O1)[C@@H](OC(=O)/C=C/c1cn(C)cn1)C[C@H]1C(C)=CC[C@H](C(C)C)[C@H]1/C=C\2COC1OCC(O)C(O)C1OC(C)=O` (some centres unmarked) [Eleutherobin], the IC50 was determined as 13.7 nM in series [1] (A2780, 72 h); 554 nM in series [2]; 10.7 nM in series [3] (HCT-116, 72 h). Also, in series [1] (in words, A2780), the “cytotoxicity with respect to the A2780 cell line” value is reported as “cytotoxic”. Moreover, the “fold resistance relative to corresponding parent cell line” value in series [2] is on record as 52 fold. The “cytotoxicity in the HCT116 cell line compared with taxol” value in series [3] (in words, HCT116) was “nearly as cytotoxic as taxol”. Moreover, the cytotoxicity result with cancer cells is given as “effective cytotoxin; also recorded: cytotoxic with respect to cancer cells”.

With `CC1=CC(=O)[C@H](C(C)C)[C@H]2/C=C(/C)[C@@]3(O)C=C[C@](C)(O3)[C@@H](OC(=O)Cc3ccccc3)C[C@@H]12` [Valdivone B], in series [4], the anti-inflammatory activity result is on record as “anti-inflammatory activity”.

For the compound `CC(C)=CC(=O)O[C@H]1C[C@H]2C(C)=CC(=O)[C@H](C(C)C)[C@H]2/C=C(/C)[C@@]2(O)C=C[C@]1(C)O2` [Valdivone A], the anti-inflammatory activity entry in series [4] is “anti-inflammatory activity”.
